Results on six molecules are retold here after DBAASP.

What all share (assay): ≥ marks a high value that may be exact or a test limit, other limits are often not marked, values filed in µg/mL are converted to µM
For assay [1], the system named is Escherichia coli NCTC 10418.
The test system of assay [2] is Staphylococcus aureus NCTC 10788.
Assay [3] concerns Pseudomonas aeruginosa ATCC 27853.
The subject of assay [4] is Staphylococcus aureus ATCC 12493.
Assay [5] deals with Candida albicans NCPF 1467.
For assay [6], the system named is Enterococcus faecalis NCTC 12697.
The test system of assay [7] is Escherichia coli K99.
Assay [8] concerns Salmonella enterica subsp. enterica serovar Typhimurium ATCC 14028.
For assay [9], the system named is Klebsiella pneumoniae.
For assay [10], the system named is Pseudomonas aeruginosa PAO1.
For assay [11], the system named is Pseudomonas aeruginosa CICC 21630.
The subject of assay [12] is Acinetobacter baumannii.
Assay [13] concerns Pseudomonas aeruginosa.
The test system of assay [14] is Escherichia coli.
Assay [15] concerns Pseudomonas aeruginosa CICC 21625.
The subject of assay [16] is Escherichia coli UB1005.
Assay [17] concerns Salmonella enterica subsp. enterica serovar Typhimurium C77-31.
The test system of assay [18] is Escherichia coli K88.
The subject of assay [19] is Salmonella enterica subsp. enterica serovar Pullorum C79-13.
For assay [20], the system named is Escherichia coli ATCC 25922.

≈ marks a conversion by molar mass, not a printed value. Some results are limits rather than exact numbers.

The term MIC denotes the smallest concentration in the dilution series that meets the test's criterion for growth inhibition. `CC[C@H](C)[C@H](NC(=O)CNC(=O)[C@@H]1CCCN1C(=O)[C@H](CC(C)C)NC(=O)[C@@H](N)Cc1ccccc1)C(=O)N[C@@H](CC(C)C)C(=O)N[C@@H](CCCCN)C(=O)N[C@H](C(=O)N[C@@H](C)C(=O)N[C@@H](C)C(=O)N[C@@H](CCCCN)C(N)=O)C(C)C` [FLPGILKVAAK]: the MIC is at least 512 µM in assay [1]; at least 256 µM in assay [2]; above 512 µM in assay [3]; at least 512 µM in assay [4]; at least 512 µM in assay [5]; at least 512 µM in assay [6].

In the case of `CC[C@H](C)[C@H](N)C(=O)N[C@@H](CCCCN)C(=O)N1CCC[C@H]1C(=O)N[C@H](C(=O)N[C@H](C(=O)N[C@@H](CCCCN)C(=O)N1CCC[C@H]1C(=O)N[C@H](C(=O)N[C@H](C(=O)N[C@@H](CCCCN)C(=O)N1CCC[C@H]1C(=O)N[C@H](C(=O)N[C@H](C(=O)N[C@@H](CCCCN)C(=O)N1CCC[C@H]1C(=O)N[C@H](C(=O)N[C@H](C(=O)N[C@@H](CCCCN)C(=O)N1CCC[C@H]1C(=O)N[C@H](C(N)=O)[C@@H](C)CC)[C@@H](C)CC)[C@@H](C)CC)[C@@H](C)CC)[C@@H](C)CC)[C@@H](C)CC)[C@@H](C)CC)[C@@H](C)CC)[C@@H](C)CC` [IKPIIKPIIKPIIKPIIKPI], the MIC is at least 64 µM in assay [7]; above 64 µM in [8]; above 64 µM in assay [9]; above 64 µM in assay [10]; at least 64 µM in assay [11]; above 64 µM in assay [3]. Besides, the minimum inhibitory concentration (MIC) in assay [12] was at least 64 µM; in [13], above 64 µM; in assay [14] it was above 64 µM; in assay [15] it was at least 64 µM; in [16], at least 64 µM; in assay [17] it was at least 64 µM. The MIC in assay [18] was at least 64 µM; in assay [19] it was at least 64 µM; in [20], above 64 µM.

Take `CC[C@H](C)[C@H](N)C(=O)N[C@@H](CCCN=C(N)N)C(=O)N1CCC[C@H]1C(=O)N[C@H](C(=O)N[C@H](C(=O)N[C@@H](CCCN=C(N)N)C(=O)N1CCC[C@H]1C(=O)N[C@H](C(=O)N[C@H](C(=O)N[C@@H](CCCN=C(N)N)C(=O)N1CCC[C@H]1C(=O)N[C@H](C(=O)N[C@H](C(=O)N[C@@H](CCCN=C(N)N)C(=O)N1CCC[C@H]1C(=O)N[C@H](C(=O)N[C@H](C(=O)N[C@@H](CCCN=C(N)N)C(=O)N1CCC[C@H]1C(=O)N[C@H](C(N)=O)[C@@H](C)CC)[C@@H](C)CC)[C@@H](C)CC)[C@@H](C)CC)[C@@H](C)CC)[C@@H](C)CC)[C@@H](C)CC)[C@@H](C)CC)[C@@H](C)CC` [IRPIIRPIIRPIIRPIIRPI]: the MIC in [7] was 4 µM (≈ 9.66 µg/mL); in assay [8], 8 µM (≈ 19.3 µg/mL); in assay [9] it was 8 µM (≈ 19.3 µg/mL); in assay [10] it was 64 µM (≈ 155 µg/mL); in assay [11] it was at least 64 µM; in [3], 32 µM (≈ 77.3 µg/mL). The MIC in assay [12] is 4 µM (≈ 9.66 µg/mL); in assay [13] it was above 64 µM; in [14] it was 8 µM (≈ 19.3 µg/mL); in assay [15], at least 64 µM; in assay [16], 4 µM (≈ 9.66 µg/mL); in assay [17] it was 16 µM (≈ 38.6 µg/mL). Moreover, the MIC in assay [18] amounted to 1 µM (≈ 2.42 µg/mL); in assay [19], 8 µM (≈ 19.3 µg/mL); in assay [20] it was 8 µM (≈ 19.3 µg/mL).

Turning to `CC(C)C[C@H](NC(=O)[C@@H]1CCCN1C(=O)[C@H](CCCCN)NC(=O)[C@H](CC(C)C)NC(=O)[C@H](CC(C)C)NC(=O)[C@@H]1CCCN1C(=O)[C@H](CCCCN)NC(=O)[C@H](CC(C)C)NC(=O)[C@H](CC(C)C)NC(=O)[C@@H]1CCCN1C(=O)[C@H](CCCCN)NC(=O)[C@H](CC(C)C)NC(=O)[C@H](CC(C)C)NC(=O)[C@@H]1CCCN1C(=O)[C@H](CCCCN)NC(=O)[C@H](CC(C)C)NC(=O)[C@H](CC(C)C)NC(=O)[C@@H]1CCCN1C(=O)[C@H](CCCCN)NC(=O)[C@H](CC(C)C)NC(=O)[C@H](CC(C)C)NC(=O)[C@@H]1CCCN1C(=O)[C@H](CCCCN)NC(=O)[C@H](CC(C)C)NC(=O)[C@H](CC(C)C)NC(=O)[C@@H]1CCCN1C(=O)[C@H](CCCCN)NC(=O)[C@@H](N)CC(C)C)C(N)=O` [LKPLLKPLLKPLLKPLLKPLLKPLLKPL], the MIC is 1 µM (≈ 3.18 µg/mL) in assay [7]; 1 µM (≈ 3.18 µg/mL) in [8]; 1 µM (≈ 3.18 µg/mL) in assay [9]; 1 µM (≈ 3.18 µg/mL) in [10]; 2 µM (≈ 6.36 µg/mL) in assay [11]; 2 µM (≈ 6.36 µg/mL) in [3]. The minimal inhibitory concentration (MIC) came out at 1 µM (≈ 3.18 µg/mL) in assay [12]; 5.66 µM (≈ 18 µg/mL) in [13]; 2 µM (≈ 6.36 µg/mL) in assay [14]; 8 µM (≈ 25.4 µg/mL) in assay [15]; 1 µM (≈ 3.18 µg/mL) in assay [16]; 2 µM (≈ 6.36 µg/mL) in assay [17]. The minimal inhibitory concentration (MIC) in assay [18] came out at 0.5 µM (≈ 1.59 µg/mL); in assay [19], 2 µM (≈ 6.36 µg/mL); in [20], 0.5 µM (≈ 1.59 µg/mL).

On to `CC(C)C[C@H](NC(=O)[C@@H]1CCCN1C(=O)[C@H](CCCCN)NC(=O)[C@H](CC(C)C)NC(=O)[C@H](CC(C)C)NC(=O)[C@@H]1CCCN1C(=O)[C@H](CCCCN)NC(=O)[C@H](CC(C)C)NC(=O)[C@H](CC(C)C)NC(=O)[C@@H]1CCCN1C(=O)[C@H](CCCCN)NC(=O)[C@H](CC(C)C)NC(=O)[C@H](CC(C)C)NC(=O)[C@@H]1CCCN1C(=O)[C@H](CCCCN)NC(=O)[C@H](CC(C)C)NC(=O)[C@H](CC(C)C)NC(=O)[C@@H]1CCCN1C(=O)[C@H](CCCCN)NC(=O)[C@H](CC(C)C)NC(=O)[C@H](CC(C)C)NC(=O)[C@@H]1CCCN1C(=O)[C@H](CCCCN)NC(=O)[C@@H](N)CC(C)C)C(N)=O` [LKPLLKPLLKPLLKPLLKPLLKPL], for which the MIC in assay [7] was 2 µM (≈ 5.45 µg/mL); in assay [8], 4 µM (≈ 10.9 µg/mL); in assay [9], 8 µM (≈ 21.8 µg/mL); in assay [10], 4 µM (≈ 10.9 µg/mL); in assay [11], at least 32 µM; in assay [3], 4 µM (≈ 10.9 µg/mL). Moreover, the MIC in assay [12] was 4 µM (≈ 10.9 µg/mL); in [13], 45.3 µM (≈ 123 µg/mL); in assay [14], 2 µM (≈ 5.45 µg/mL); in assay [15], at least 64 µM; in assay [16], 2 µM (≈ 5.45 µg/mL); in assay [17], 8 µM (≈ 21.8 µg/mL). For the same molecule, the values for the MIC in [18], in assay [19] and in assay [20] were 1 µM (≈ 2.73 µg/mL), 4 µM (≈ 10.9 µg/mL) and 1 µM (≈ 2.73 µg/mL), respectively.

In the case of `CC(C)C[C@H](NC(=O)[C@H](C)NC(=O)[C@H](C)NC(=O)[C@H](CC(C)C)NC(=O)[C@H](CC(N)=O)NC(=O)[C@@H](NC(=O)[C@@H](NC(=O)[C@H](CC(C)C)NC(=O)[C@H](CCCCN)NC(=O)[C@H](CCCCN)NC(=O)[C@@H](NC(=O)[C@@H](NC(=O)[C@@H](NC(=O)[C@H](CC(C)C)NC(=O)[C@H](Cc1ccccc1)NC(=O)[C@@H](N)CO)[C@@H](C)O)[C@@H](C)O)C(C)C)C(C)C)[C@@H](C)O)C(N)=O` [SFLTTVKKLVTNLAAL], the minimal inhibitory concentration (MIC) in assay [1] is 16 µM (≈ 27.5 µg/mL); in assay [2] it was 8 µM (≈ 13.7 µg/mL); in assay [3] it was 64 µM (≈ 110 µg/mL); in [4], 16 µM (≈ 27.5 µg/mL); in assay [5] it was 16 µM (≈ 27.5 µg/mL); in assay [6], at least 32 µM.
